From patent US8546376B2, “Pharmaceutical compounds” (Almac Discovery Limited, priority 2009, dated 2013)
Structures can show the parent of a compound that is named as a salt.

Key:
Format in all cases: biochemical
[1] = molecular target: T1, AKT2 (Homo sapiens, UniProt P31751); test: AKT Kinase Assay (IMAP fluorescent polarisation) vs AKT2; conditions: activated AKT2, FAM Crosstide substrate
T1 construct: purchased SignalChem
Method in brief: (§1)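 IC50 values came from non-linear regression of % inhibition relative to vehicle, measured by IMAP fluorescence polarisation (485/528 nm) after a 1 h room-temperature reaction of FAM-Crosstide and ATP. Each activated isoform was first exposed to compound for 45 min across fourteen half-log doses.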

[2] = molecular target: T2, AKT3 (Homo sapiens, UniProt Q9Y243); test: AKT Kinase Assay (IMAP fluorescent polarisation) vs AKT3; conditions: activated AKT3, FAM Crosstide substrate
T2 construct: purchased SignalChem
Method in brief: as §1

[3] = molecular target: T3, AKT1 (Homo sapiens, UniProt P31749); test: AKT Kinase Assay (IMAP fluorescent polarisation) vs AKT1; conditions: activated AKT1, FAM Crosstide substrate
T3 construct: purchased SignalChem
Method in brief: as §1

T2 sequence (Q9Y243 whole entry): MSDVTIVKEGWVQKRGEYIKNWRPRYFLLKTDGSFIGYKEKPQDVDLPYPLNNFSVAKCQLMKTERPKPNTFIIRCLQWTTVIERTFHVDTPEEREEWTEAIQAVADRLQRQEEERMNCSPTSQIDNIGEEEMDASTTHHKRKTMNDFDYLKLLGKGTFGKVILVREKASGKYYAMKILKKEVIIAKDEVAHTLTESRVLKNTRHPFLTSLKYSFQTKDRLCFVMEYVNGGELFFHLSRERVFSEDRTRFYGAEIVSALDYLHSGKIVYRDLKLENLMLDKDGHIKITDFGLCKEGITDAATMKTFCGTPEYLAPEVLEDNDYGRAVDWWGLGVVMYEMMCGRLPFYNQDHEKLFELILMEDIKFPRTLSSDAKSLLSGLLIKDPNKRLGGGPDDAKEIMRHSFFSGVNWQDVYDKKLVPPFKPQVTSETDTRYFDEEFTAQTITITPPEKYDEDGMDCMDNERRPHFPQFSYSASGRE
T1 sequence (P31751 whole entry): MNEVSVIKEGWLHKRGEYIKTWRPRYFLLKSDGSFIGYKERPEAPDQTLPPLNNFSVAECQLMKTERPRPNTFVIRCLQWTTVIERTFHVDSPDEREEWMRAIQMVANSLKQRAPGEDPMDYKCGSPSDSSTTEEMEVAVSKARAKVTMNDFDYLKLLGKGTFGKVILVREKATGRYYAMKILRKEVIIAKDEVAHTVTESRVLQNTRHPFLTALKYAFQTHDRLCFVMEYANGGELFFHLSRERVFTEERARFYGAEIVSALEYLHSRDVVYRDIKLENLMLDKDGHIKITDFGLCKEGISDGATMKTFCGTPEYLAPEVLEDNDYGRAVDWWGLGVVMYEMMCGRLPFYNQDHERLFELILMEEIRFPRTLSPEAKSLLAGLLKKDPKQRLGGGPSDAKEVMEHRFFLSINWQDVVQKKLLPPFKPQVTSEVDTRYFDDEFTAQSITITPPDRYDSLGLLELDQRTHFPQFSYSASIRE
T3 sequence (P31749 whole entry): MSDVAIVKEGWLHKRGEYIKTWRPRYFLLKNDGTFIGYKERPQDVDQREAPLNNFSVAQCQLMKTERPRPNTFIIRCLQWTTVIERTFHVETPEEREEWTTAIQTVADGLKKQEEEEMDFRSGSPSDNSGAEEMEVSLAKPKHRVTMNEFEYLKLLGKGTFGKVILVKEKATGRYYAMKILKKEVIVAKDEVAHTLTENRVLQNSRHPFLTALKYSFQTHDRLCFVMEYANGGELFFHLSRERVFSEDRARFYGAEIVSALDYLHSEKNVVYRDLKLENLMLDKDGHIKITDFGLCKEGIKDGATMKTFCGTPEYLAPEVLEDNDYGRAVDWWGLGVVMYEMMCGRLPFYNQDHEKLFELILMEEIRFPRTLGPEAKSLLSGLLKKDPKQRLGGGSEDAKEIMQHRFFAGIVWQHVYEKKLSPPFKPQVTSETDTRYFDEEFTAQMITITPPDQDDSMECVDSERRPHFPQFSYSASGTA

Structure (SMILES)	IC50 [1]	IC50 [2]	IC50 [3]
NC1(c2ccc(-c3c(-c4ccccc4)oc4c(ccc5c(Cl)n[nH]c54)c3=O)cc2)CCC1 [Example 99, 7-[4-(1-Amino-cyclobutyl)-phenyl]-3-chloro-8-phenyl-1H-9-oxa-1,2-diaza-cyclopenta[a]naphthalen-6-one hydrochloride]	1000 to 10000 nM	1000 to 10000 nM	≤ 1000 nM
Cn1nc(Cl)c2ccc3c(=O)c(-c4ccc(C5(N)CCC5)cc4)c(-c4ccccc4)oc3c21 [Example 100, 7-[4-(1-Amino-cyclobutyl)-phenyl]-3-chloro-1-methyl-8-phenyl-1H-9-oxa-1,2-diaza-cyclopenta[a]naphthalen-6-one hydrochloride]	1000 to 10000 nM	1000 to 10000 nM	≤ 1000 nM
Cn1cc(-c2nccc3c(=O)c(-c4ccc(C5(N)CCC5)cc4)c(-c4ccccc4)oc23)cn1 [Example 101, 3-[4-(1-Amino-cyclobutyl)-phenyl]-8-(1-methyl-1H-pyrazol-4-yl)-2-phenyl-pyrano[2,3-c]pyridin-4-one hydrochloride]	≤ 1000 nM	≤ 1000 nM	≤ 1000 nM
NC1(c2ccc(-c3c(-c4ccccc4)oc4c(-n5cnnc5)nccc4c3=O)cc2)CCC1 [Example 102, 3-[4-(1-Amino-cyclobutyl)-phenyl]-2-phenyl-8-[1,2,4]triazol-4-yl-pyrano[2,3-c]pyridin-4-one hydrochloride]	1000 to 10000 nM	> 10000 nM	≤ 1000 nM
NC1(c2ccc(-c3c(-c4ccccc4)oc4c(Oc5ccccn5)nccc4c3=O)cc2)CCC1 [Example 103, 3-[1-(1-Amino-cyclobutyl)-phenyl]-2-phenyl-8-(pyridin-2-yloxy)-pyrano[2,3-c]pyridin-4-one hydrochloride]	1000 to 10000 nM	> 10000 nM	≤ 1000 nM
NC1(c2ccc(-c3c(-c4ccccc4)oc4c(-n5ccccc5=O)nccc4c3=O)cc2)CCC1 [Example 104, 3-[4-(1-Amino-cyclobutyl)-phenyl]-8-(2-oxo-2H-pyridin-1-yl)-2-phenyl-pyrano[2,3-c]pyridin-4-one hydrochloride]	> 10000 nM	> 10000 nM	1000 to 10000 nM
C#Cc1cccc2c(=O)c(-c3ccc(C4(N)CCC4)cc3)c(-c3ccccc3)oc12 [Example 105, 3-[4-(1-Amino-cyclobutyl)-phenyl]-8-ethynyl-2-phenyl-chromen-4-one]	1000 to 10000 nM	1000 to 10000 nM	≤ 1000 nM
NC1(c2ccc(-c3c(-c4ccccc4)oc4c(-c5c[nH]nn5)cccc4c3=O)cc2)CCC1 [Example 106, 3-[4-(1-Amino-cyclobutyl)-phenyl]-2-phenyl-8-(1H-[1,2,3]triazol-4-yl)-chromen-4-one]	≤ 1000 nM	≤ 1000 nM	≤ 1000 nM
NC1(c2ccc(-c3c(-c4ccccc4)oc4c(C(=O)O)cccc4c3=O)cc2)CCC1 [Example 107, 3-[4-(1-Amino-cyclobutyl)-phenyl]-4-oxo-2-phenyl-4H-chromene-8-carboxylic acid. trifluoro-acetic acid]	> 10000 nM	> 10000 nM	1000 to 10000 nM
NC1(c2ccc(-c3c(-c4ccccc4)oc4c(CN5CC(F)C5)cccc4c3=O)cc2)CCC1 [Example 108, 3-[4-(1-Amino-cyclobutyl)-phenyl]-8-(3-fluoro-azetidin-1-ylmethyl)-2-phenyl-chromen-4-one]	≤ 1000 nM	> 10000 nM	1000 to 10000 nM
NC1(c2ccc(-c3c(-c4ccccc4)oc4c5c(ccc4c3=O)OCC(=O)N5)cc2)CCC1 [Example 109, 8-(4-(1-aminocyclobutyl)phenyl)-9-phenylchromeno[7,8-b][1.4]oxazine-2,7(1H,3H)-dione]	1000 to 10000 nM	1000 to 10000 nM	≤ 1000 nM
N#CCOc1ccc2c(=O)c(-c3ccc(C4(N)CCC4)cc3)c(-c3ccccc3)oc2c1Br [Example 110, 2-(3-(4-(1-aminocyclobutyl)phenyl)-8-bromo-4-oxo-2-phenyl-4H-chromen-7-yloxy)acetonitrile]	1000 to 10000 nM	1000 to 10000 nM	≤ 1000 nM
N#CCn1ncc2ccc3c(=O)c(-c4ccc(C5(N)CCC5)cc4)c(-c4ccccc4)oc3c21 [Example 111, 2-(7-(4-(1-aminocyclobutyl)phenyl)-6-oxo-8-phenylpyrano[3,2-g]indazol-1(6H)-v1)acetonitrile]	1000 to 10000 nM	1000 to 10000 nM	≤ 1000 nM
CN1C(=O)COc2c1ccc1c(=O)c(-c3ccc(C4(N)CCC4)cc3)c(-c3ccccc3)oc21 [Example 112, 8-(4-(1-aminocyclobutyl)phenyl)-4-methyl-9-phenylchromeno[8,7-b][1,4]oxazine-3,7(2H,4H)-dione]	≤ 1000 nM	1000 to 10000 nM	≤ 1000 nM
NC1(c2ccc(-c3c(-c4ccccc4)oc4c(-c5ccc(C6(N)CCC6)cc5)nccc4c3=O)cc2)CCC1 [Example 113, 3,8-bis(4-(1-aminocyclobutyl)phenyl)-2-phenyl-4H-pyrano[2,3-c]pyridin-4-one]	> 10000 nM	> 10000 nM	≤ 1000 nM
NC1(c2ccc(-c3c(-c4ccccc4)oc4c(-n5ccnc5)nccc4c3=O)cc2)CCC1 [Example 114, 3-(4-(1-aminocyclobutyl)phenyl)-8-(1H-imidazol-1-yl)-2-phenyl-4H-pyrano[2,3-c]pyridin-4-one]	1000 to 10000 nM	> 10000 nM	≤ 1000 nM
Cc1nn(C)c(C)c1-c1nccc2c(=O)c(-c3ccc(C4(N)CCC4)cc3)c(-c3ccccc3)oc12 [Example 115, 3-(4-(1-aminocyclobutyl)phenyl)-2-phenyl-8-(1,3,5-trimethyl-1H-pyrazol-4-yl)-4H-pyrano[2,3-c]pyridin-4-one]	1000 to 10000 nM	> 10000 nM	> 10000 nM
Cc1c(-c2nccc3c(=O)c(-c4ccc(C5(N)CCC5)cc4)c(-c4ccccc4)oc23)cnn1C [Example 116, 3-(4-(1-aminocyclobutyl)phenyl)-8-(1,5-dimethyl-1H-pyrazol-4-yl)-2-phenyl-4H-pyrano[2,3-c]pyridin-4-one]	1000 to 10000 nM	1000 to 10000 nM	≤ 1000 nM
CC(C)Cn1cc(-c2nccc3c(=O)c(-c4ccc(C5(N)CCC5)cc4)c(-c4ccccc4)oc23)cn1 [Example 117, 3-(4-(1-aminocyclobutyl)phenyl)-8-(1-isobutyl-1H-pyrazol-4-0)-2-phenyl-4H-pyrano[2,3-c]pyridin-4-one]	≤ 1000 nM	1000 to 10000 nM	≤ 1000 nM
COc1ccccc1-c1nccc2c(=O)c(-c3ccc(C4(N)CCC4)cc3)c(-c3ccccc3)oc12 [Example 118, 3-(4-(1-aminocyclobutyl)phenyl)-8-(2-methoxyphenyl)-2-phenyl-4H-pyrano[2,3-c]pyridin-4-one]	1000 to 10000 nM	1000 to 10000 nM	≤ 1000 nM
CS(=O)(=O)c1ccccc1-c1nccc2c(=O)c(-c3ccc(C4(N)CCC4)cc3)c(-c3ccccc3)oc12 [Example 119, 3-(4-(1-aminocyclobutyl)phenyl)-8-(2-(methylsulfonyl)phenyl)-2-phenyl-4H-pyrano[2,3-c]pyridin-4-one]	1000 to 10000 nM	> 10000 nM	1000 to 10000 nM
Cc1nccc2c(=O)c(-c3ccc(C4(N)CCC4)cc3)c(-c3ccccc3)oc12 [Example 120, 3-(4-(1-aminocyclobutyl)phenyl)-8-methyl-2-phenyl-4H-pyrano[2,3c]pyridin-4-one]	1000 to 10000 nM	> 10000 nM	1000 to 10000 nM
